Assay results as given in patent US20230313313A1, “BIOMARKERS FOR CANCER THERAPY USING MDM2 ANTAGONISTS” (OTSUKA PHARMACEUTICAL CO., LTD., priority 2020, published 2023).
Entries after “also recorded” stand apart in the source; their conditions may differ.

Columns and labels:
[1] = tested on: MV4-11 cells; assay: Apoptosis assay by cytometry, MV4-11 overexpressing SKP2; type: cell-based, human; conditions: MV4-11 SKP2 OE, 48-hour treatment with 2 different concentrations
Method: (§1) Precision LentiORF Transduction:
(§2) Precision LentiORF Lentiviral Transduction Particles (Cat. OHS5900-224629438, Dharmacon, UK) were used to overexpress SKP2 in the MV4-11 AML cell line. Stable gene overexpression was established by cellular resistance to blasticidin (5 μg/ml) and was confirmed at the protein level by western blot. The Precision LentiORF control empty vector (Dharmacon, UK) served as a negative control.
(§3) Apoptosis Assay by Cytometry
(§4) The cell lines were plated out in 6-well plates at 0.5×10^6 cells/ml (2 ml/well) the day before treatment and allowed to recover overnight in a humidified 5% CO2/air incubator at 37° C. […] Briefly, the cells were resuspended with the Annexin V-binding buffer and stained with Annexin V-conjugate. Samples were incubated for 20 min at room temperature in the dark. After washing with the Annexin V-binding buffer, the cells were analyzed with a flow cytometer.
(§5) For caspase 3/7 staining CellEvent™ Caspase 3/7 Green reagent (Life Technologies), a fluorogenic substrate for activated caspase-3 and -7 was used according to the manufacturer's protocol. The cells were incubated with 5 μM of substrate for 30 min at room temperature and then analyzed with a flow cytometer.

[2] = tested on: MV4-11 tumour cells in the bone marrow; assay: In vivo systemic AML mouse model, bone marrow flow cytometry; design: species or system NSG mice; conditions: 14 days after treatment
Method: Thus, overexpression of SKP2 is able to turn a sensitive AML cell line into a resistant cell line in vivo, providing evidence that low SKP2 is an important biomarker for sensitivity to MDM2 antagonism.
(§6) In Vivo Systemic AML Mouse Model
(§7) Female NSG Mice (6-8 weeks old) were bought from Jackson Laboratories (Bar Harbor, ME). Animals were given an intravenous injection of 5×10^6 MV4-11 cells and tumour engraftment was assessed by PCR for circulating human DNA. Mice were randomized to treatment groups based on systemic tumour burden as detected by PCR. Leukemic burden was then monitored weekly by serial bleeding followed by PCR. Mice were observed daily and euthanized humanely upon signs of terminal illness (hind limb paralysis, inability to eat/drink, moribund lethargy).
Bone Marrow Flow Cytometry
Bone marrow cells were stained with PE-CF594 Anti-Human CD45 (BD 562312), BB515 Anti-Mouse CD45 (BD 564590) and DAPI. The amount of human cells engrafted in the bone marrow is expressed as % of viable mouse CD45+ cells.

[3] = tested on: AML cell lines; assay: Activated caspase-3 by cytometry in AML cell lines; type: cell-based, human
Method: Levels of Compound 1-induced apoptosis were measured as percentage of cells with activated caspase-3. […] The extent of Compound 1-induced apoptosis is not predicted from the IC50 values obtained from the Alamar Blue proliferation assays, thus emphasising the impact of grouping cell lines specifically based on their apoptotic potential for subsequent analyses described in the following section.
Activated Caspase-3 by Cytometry
The cell lines were plated out in 6-well plates at 0.5×10^6 cells/ml (2 ml/well) the day before treatment and allowed to recover overnight in a humidified 5% CO2/air incubator at 37° C. […] 200 μl of each sample was added to duplicate wells of a 96-well plate. To one of the two wells, 50 μl of serum-free medium was added as an unstained control. […] The plate was incubated in the dark for 30 minutes before measuring fluorescent stained cells in a Guava EasyCyte HT cytometer (Merck Millipore, Kenilworth, NJ, USA). Activated caspase-3 staining was recorded in the GRN-B (green) channel, with unstained and DMSO control wells being used to set the gated stained and unstained cell populations—allowing the percentage of cells that are apoptotic to be calculated.

[4] = tested on: acute myeloid leukemia blasts isolated from patients; assay: Primary AML blasts sensitivity, 24 h apoptosis assay (Annexin V/PI); type: cell-based, human; conditions: 13 primary AML samples, two concentrations
Method: Low SKP2 expression is a biomarker for sensitivity of AML to MDM2 antagnists in patient-derived samples.
Evaluation of Primary AML Blasts Sensitivity to Compound 1
Primary frozen AML samples were purchased from NBS Biobank (Moscow, Russia). 13 primary AML samples with high blast content (>80%) were cultured in selected expansion media composed by StemSpan SFEM II media (Stemcell, #09605), 1× StemSpan CD34+ expansion supplement (Stemcell, #02691), 2% FBS and 1% Penicillin/Streptomycin.
Evaluation of SKP2 Protein Expression on Primary AML Blasts
Capillary Western analyses were performed using the ProteinSimple Wes System (San Jose, CA, USA). Antibodies used were specific for SKP2 (#4358) and TXN1 (#2429) as loading control. Samples were diluted with 0.1× Sample Buffer. Then 4 parts of diluted sample were combined with 1 part 5× Fluorescent Master Mix (containing 5× sample buffer, 5× fluorescent standard, and 200 mM DTT) and heated at 95° C. for 5 min. After this denaturation step, the prepared samples, blocking reagent, primary antibodies (1:10 dilution for SKP2, 1:100 for TXN1), HRP-conjugated secondary antibodies and chemiluminescent substrate were dispensed into designated wells in an assay plate. A biotinylated ladder provided molecular weight standards for each assay. […]

[5] = tested on: OCI-AML3 cells; assay: Induction of apoptosis by cleaved caspase-3 cytometry, combination with IAP antagonist; type: cell-based, human; conditions: 0.1 μM, 72 h
Method: Cleaved caspase-3 staining was recorded in the FL1 (green) channel, with unstained and DMSO control wells being used to set the gated stained and unstained cell populations—allowing the percentage of cells that are apoptotic to be calculated.

[6] = tested on: MV4-11 cells; assay: In vivo systemic AML mouse model, PCR for circulating human DNA; conditions: MV4-11 empty vector (absence of SKP2 overexpression); NSG mice
Method: In addition to assessing the effect of SKP2 overexpression and knockdown in vitro, the impact of SKP2 on cancer proliferation was evaluated in vivo, using a disseminated AML model based on the MV4-11 cell line. To generate a systemic in vivo model of AML, NSG mice were injected in the tail vein with MV4-11 cells engineered to overexpress SKP2 or empty vector. Systemic tumour burden was assessed by PCR for circulating human DNA.
as §6, §7
PCR for Circulating Human DNA
Blood samples were collected in heparinized capillary tubes and samples were stored at −80° C. until analysis. DNA was extracted using the DNeasy Blood & Tissue Kit (Qiagen, Cat: 69504) and PCR for human DNA was run using TaqMan™ Genotyping Master Mix (ThermoFisherScientific Catalog number: 4371355) using the following primers: […]

[7] = tested on: MV4-11 cells; assay: Alamar Blue proliferation assay, MV4-11 overexpressing SKP2 vs control; type: cell-based, human; conditions: MV4-11 SKP2 OE compared to control
Method: as §1, §2
The number of viable cells was determined by Alamar Blue assay (Bio-Rad, Irvine, CA, USA). All cell lines were grown and assayed in RPMI-1640+10% FBS medium.
Compounds were diluted first in DMSO and then into serum-free medium, before addition to triplicate wells of the cultured cells to give a 0.1% DMSO final concentration. […] Twenty μl of Alamar Blue™ (AbD Serotec/Bio-Rad) was added to each well and plates were then incubated for 4-6 h at 37° C. in an atmosphere of 5% CO2 and air. Plates were then read at 535 nm (excitation) and 590 nm (emission) on a SpectraMax Gemini reader (Molecular Devices, San Jose, CA, USA).

[8] = tested on: OCI-AML3 AML cell line; assay: Apoptosis after SKP2 knockdown in a non-apoptotic AML cell line; type: cell-based, human
Method: shRNA Lentiviral Transduction:
MISSION® shRNA Lentiviral Transduction Particles (Sigma Aldrich, Pool, UK) were used to knockdown SKP2 in the OCI-AML3 AML cell line. Stable gene knockdown was established by cellular resistance to puromycin (1 μg/ml) and was confirmed at the protein level by western blot.
as §3, §4, §5

[9] = tested on: SJSA-1; assay: Protocol B: SJSA-1 CellTiter-Glo Luminescent Cell Viability Assay; conditions: Homo sapiens, SJSA-1, read-out: SJSA1 IC50 (μM) (Protocol B)

SMILES	effect of SKP2 overexpression on apoptosis / cell death [1]	bone marrow tumour burden (FACS) ([2]; SKP2 overexpressed)	leukemic tumour cells in the bone marrow (FACS) ([2]; absence of SKP2 overexpression)	apoptosis (cells with activated caspase-3) ([3]; HNT-34, OCI-AML3, ML-2, GDM-1 (non-apoptotic), 48-hour treatment with 100 nM) [%]	cells staining positive for activated caspase-3 ([3]; MV4-11, EOL-1, Molm-13, OCI-AML-2 and BDCM (apoptotic), 48-hour treatment with 100 nM) [%]	increase in activated caspase-3 ([3]; panel of 12 AML cell lines, negative control KG-1, TP53 mutant)	sensitivity of SKP2 low blasts compared with SKP2 high blasts [4]	level of apoptosis (cleaved caspase-3), single agent [5]	level of apoptosis (cleaved caspase-3), single agent ([5]; listed as Compund 1)	systemic tumour burden (circulating human DNA) [6]	effect of SKP2 overexpression on cytotoxicity / sensitivity [7]	effect of SKP2 knockdown on cytotoxicity ([8]; non-apoptotic AML cell line)	increase of apoptosis on SKP2 knockdown compared to control (no SKP2 knockdown) ([8]; non-apoptotic AML cell line (high basal SKP2), 0.1 μM)	IC50 [9] [µM]
CC[C@@](O)(c1cc(F)c2c(c1)C(=O)N([C@H](c1ccc(Cl)cc1)[C@H](C)C(=O)O)[C@@]2(OC)c1ccc(Cl)cc1)C1CCOCC1 [Compound 1, (2S,3S)-3-(4-chlorophenyl)-3-[(1R)-1-(4-chlorophenyl)-7-fluoro-5-[(1S)-1-hydroxy-1-(oxan-4-yl)propyl]-1-methoxy-3-oxo-2,3-dihydro-1H-isoindol-2-yl]-2-methylpropanoic acid]	reduces Compound 1-dependent cell death; also recorded: strong reduction in apoptosis	does not reduce the number of leukemic cells; also recorded: no effects	reduces the number of leukemia cells; also recorded: significant decrease	< 30	> 30	observed in all cell lines except the negative control	more sensitive	did not induce a high level of apoptosis	does not induce substantial levels of cell death by apoptosis	only low levels of circulating human DNA	reduces Compound 1-induced cytotoxicity; also recorded: resistant	increases Compound 1-induced cytotoxicity	about 30%	–
[2H]C([2H])(O)C1(C([2H])([2H])O[C@]2(c3ccc(Cl)cc3)c3c(F)cc(C(O)(CC)c4cn(C)cn4)cc3C(=O)N2Cc2ccc(C#N)cn2)CC1 (some centres unmarked) [Example 440]	–	–	–	–	–	–	–	–	–	–	–	–	–	1.9
